From patent US20260248157A1, “COMPOSITIONS FOR REDUCING METHANE EMISSION” (MOOTRAL INNOVATIONS LIMITED, priority 2022, published 2026)
Read-outs that look alike come from different tables or passages of the source.

System: Methanococcus maripaludis
Assay: Inhibition of methane production by Methanococcus maripaludis culture (pressure drop after 24 h)
Type: cell-based
Settings: for Fold increase of Compound X combined with bromoform as compared to Compound X alone: bromoform 0.12 μM; for inhibition at 25 µM: Compound X 25 μM alone; for inhibition at 100 µM: Compound X 100 μM alone
Experimental: For this experiment, bromoform was prepped at 100 mM by adding 8.75 μl bromoform to 991 μl DMSO. This was diluted 10× to generate a 10 mM solution and further diluted to generate 0.12 mM stock solutions. Compound X stock solutions were prepared in DMSO (except for tannic acid, which was diluted in deionized water), to achieve the desired stock solutions required for testing. The experiment was set up by adding 5 ml of M141 medium (https://www.dsmz.de/microorganisms/medium/pdf/DSMZ_Medium141.pdf) to a screw cap Hungate tube followed by the addition of 5 μl Compound X and/or 5 μl bromoform or 5/10 μl DMSO as follows: • Tube 1: DMSO (10 μl) • Tube 2: Bromoform (5 μl, 0.120 mM) (120 nM final)+5 μl DMSO • Tube 3: Compound X (5 μl stock solution)+5 μl DMSO • Tube 4: Bromoform (5 μl 0.120 mM) (120 nM final)+Compound X (5 μl stock solution)
The concentration of Bromoform was fixed at 0.12 μM.
After the addition of the test substances, 500 μl of an overnight M. maripaludis culture was added to each reaction tube. Each tube was gassed with 80% H2/20% CO2 to 240 kPa and incubated at 37° C. for 24 h.
After the 24 h incubation the pressure inside the tube was measured using a manometer. Given that 5 moles of H2/CO2 are consumed to generate 1 mole of CH4 the drop in pressure observed was used to calculate the amount of methane by the control and test reactions from which a percent inhibition was calculated.
Table 1 below summarises the range of concentrations and the fold increase in inhibition of Compound X when tested with bromoform relative to the level of inhibition for Compound X when tested alone.

[1] = Compound X 25 μM + bromoform 0.12 μM, 24 h
[2] = Methanococcus maripaludis, 24 h, read-out: Methane inhibition of Compound X as a sole compound (%)
[3] = Compound X 500 μM + bromoform 0.12 μM, 24 h
[4] = Compound X 1 mM + bromoform 0.12 μM, 24 h
[5] = Compound X 100 μM + bromoform 0.12 μM, 24 h

## O=[N+]([O-])OCCCO [3-Nitrooxypropanol]
Compound X 0.78 μM-1.56 μM (range tested) + bromoform 0.12 μM, 24 h
  Methane inhibition in combination with Bromoform (%): 91.3%
Compound X 0.78 μM-1.56 μM (range tested)
  Fold increase of Compound X combined with bromoform as compared to Compound X alone: 91.3 fold
Methanococcus maripaludis, Compound X 0.78 μM-1.56 μM (range tested) alone, 24 h, read-out: Methane inhibition of Compound X as a sole compound (%)
  inhibition: 1%

## CC(C)=CCc1c(O)cc(O)c2c1O[C@H](c1ccc(O)cc1)CC2=O [8-prenylnaringenin]
Compound X 12.5 μM + bromoform 0.12 μM, 24 h
  Methane inhibition in combination with Bromoform (%): 97.2%
Compound X 12.5 μM
  Fold increase of Compound X combined with bromoform as compared to Compound X alone: 1.27 fold
Methanococcus maripaludis, Compound X 12.5 μM alone, 24 h, read-out: Methane inhibition of Compound X as a sole compound (%)
  inhibition at 12.5 µM: 76.4%

## CC(C)=CCc1cc2c(cc1O)O[C@H](c1ccc(O)cc1)CC2=O [Bavachin]
[1]
  Methane inhibition in combination with Bromoform (%): 57.4%
Compound X 25 μM
  Fold increase of Compound X combined with bromoform as compared to Compound X alone: 57.4 fold
[2]
  inhibition at 25 µM: 1%

## Cc1ccc(C(C)C)cc1O [Carvacrol]
[3]
  Methane inhibition in combination with Bromoform (%): 79.6%
Compound X 500 μM
  Fold increase of Compound X combined with bromoform as compared to Compound X alone: 1.14 fold
[2]
  inhibition at 500 µM: 69.6%

## O=CC=Cc1ccccc1 [Cinnamaldehyde]
[4]
  Methane inhibition in combination with Bromoform (%): 91.7%
Compound X 1 mM
  Fold increase of Compound X combined with bromoform as compared to Compound X alone: 91.7 fold
Methanococcus maripaludis, Compound X 1 mM alone, 24 h, read-out: Methane inhibition of Compound X as a sole compound (%)
  inhibition at 1000 µM: 1%

## CC(C)=CCCC(C)=CC=O [Citral]
[3]
  Methane inhibition in combination with Bromoform (%): 96.7%
Compound X 500 μM
  Fold increase of Compound X combined with bromoform as compared to Compound X alone: 7.29 fold
Methanococcus maripaludis, Compound X 500 μM alone, 24 h, read-out: Methane inhibition of Compound X as a sole compound (%)
  inhibition at 500 µM: 13.3%

## CC(C)=CCC/C(C)=C/Cc1cc(-c2coc3cc(O)ccc3c2=O)ccc1O [Corylifol A]
Compound X 3.125 μM + bromoform 0.12 μM, 24 h
  Methane inhibition in combination with Bromoform (%): 96.1%
Compound X 3.125 μM alone, 24 h
  Methane inhibition of Compound X as a sole compound (%): 1%
Compound X 3.125 μM
  Fold increase of Compound X combined with bromoform as compared to Compound X alone: 96.1 fold

## O=C(O)C(Br)Br [Dibromoacetic acid]
Compound X 200 μM + bromoform 0.12 μM, 24 h
  Methane inhibition in combination with Bromoform (%): 88.1%
Compound X 200 μM
  Fold increase of Compound X combined with bromoform as compared to Compound X alone: 88.1 fold
[2]
  inhibition at 200 µM: 1%

## ClC(Br)Br [Dibromochloromethane]
Compound X 0.195 μM + bromoform 0.12 μM, 24 h
  Methane inhibition in combination with Bromoform (%): 92.2%
Compound X 0.195 μM
  Fold increase of Compound X combined with bromoform as compared to Compound X alone: 92.2 fold
[2]
  inhibition at 0.195 µM: 1%

## CSSC [Dimethyl disulfide]
[4]
  Methane inhibition in combination with Bromoform (%): 43.5%
Compound X 1 mM
  Fold increase of Compound X combined with bromoform as compared to Compound X alone: 43.5 fold
[2]
  inhibition at 1000 µM: 1%

## CC(C)=CCC[C@](C)(O[C@@H]1O[C@H](CO[C@@H]2OC[C@H](O)[C@H](O)[C@H]2O)[C@@H](O)[C@H](O)[C@H]1O)[C@H]1CC[C@]2(C)[C@@H]1[C@H](O)C[C@@H]1[C@@]3(C)CC[C@H](O[C@@H]4O[C@H](CO)[C@@H](O)[C@H](O)[C@H]4O[C@@H]4O[C@H](CO)[C@@H](O)[C@H](O)[C@H]4O)C(C)(C)[C@@H]3CC[C@]12C [Ginsenoside Rb2]
Compound X 20 μM + bromoform 0.12 μM, 24 h
  Methane inhibition in combination with Bromoform (%): 66.9%
Compound X 20 μM alone, 24 h
  Methane inhibition of Compound X as a sole compound (%): 44.7%
Compound X 20 μM
  Fold increase of Compound X combined with bromoform as compared to Compound X alone: 1.42 fold

## CC(C)=CCc1c(O)ccc(C(=O)/C=C/c2ccc(O)cc2)c1O [Isobavachalcone]
Compound X 3.125 μM-6.25 μM (range tested) + bromoform 0.12 μM, 24 h
  Methane inhibition in combination with Bromoform (%): 93.4%
Compound X 3.125 μM-6.25 μM (range tested)
  Fold increase of Compound X combined with bromoform as compared to Compound X alone: 1.12 fold
Methanococcus maripaludis, Compound X 3.125 μM-6.25 μM (range tested) alone, 24 h, read-out: Methane inhibition of Compound X as a sole compound (%)
  inhibition: 83.4%

## CC(C)=CCc1c(-c2ccc(O)cc2O)oc2c3c(cc(O)c2c1=O)OC(C)(C)C=C3 [Morusin]
Compound X 1.25 μM-10 μM (range tested) + bromoform 0.12 μM, 24 h
  Methane inhibition in combination with Bromoform (%): 96.7%
Compound X 1.25 μM-10 μM (range tested)
  Fold increase of Compound X combined with bromoform as compared to Compound X alone: 2.16 fold

## O=c1c(O)c(-c2ccc(O)c(O)c2)oc2cc(O)cc(O)c12 [Quercetin]
Compound X 50 μM-100 μM (range tested) + bromoform 0.12 μM, 24 h
  Methane inhibition in combination with Bromoform (%): 91.2%
Compound X 50 μM-100 μM (range tested)
  Fold increase of Compound X combined with bromoform as compared to Compound X alone: 1.21 fold

## C[C@H]1O[C@@H](O[C@H]2CC[C@@]3(C)[C@@H](CC[C@]4(C)[C@@H]3C=CC3=C5CC(C)(C)CC[C@]5(CO)[C@H](O)C[C@]34C)[C@]2(C)CO)[C@H](O)[C@@H](O[C@@H]2O[C@H](CO)[C@@H](O)[C@H](O)[C@H]2O)[C@H]1O [Saikosaponin b2]
Compound X 10 μM + bromoform 0.12 μM, 24 h
  Methane inhibition in combination with Bromoform (%): 55.6%
Compound X 10 μM alone, 24 h
  Methane inhibition of Compound X as a sole compound (%): 1%
Compound X 10 μM
  Fold increase of Compound X combined with bromoform as compared to Compound X alone: 55.6 fold

## C=C[C@](C)(O)CC[C@@H]1[C@@]2(C)CCCC(C)(C)[C@@H]2CC[C@@]1(C)O [Sclareol]
[1]
  Methane inhibition in combination with Bromoform (%): 61.2%
Compound X 25 μM
  Fold increase of Compound X combined with bromoform as compared to Compound X alone: 56 fold
[2]
  inhibition at 25 µM: 1.1%

## O=C(OC[C@H]1O[C@@H](OC(=O)c2cc(O)c(O)c(OC(=O)c3cc(O)c(O)c(O)c3)c2)[C@H](OC(=O)c2cc(O)c(O)c(OC(=O)c3cc(O)c(O)c(O)c3)c2)[C@@H](OC(=O)c2cc(O)c(O)c(OC(=O)c3cc(O)c(O)c(O)c3)c2)[C@@H]1OC(=O)c1cc(O)c(O)c(OC(=O)c2cc(O)c(O)c(O)c2)c1)c1cc(O)c(O)c(OC(=O)c2cc(O)c(O)c(O)c2)c1 [Tannic acid]
[5]
  Methane inhibition in combination with Bromoform (%): 56.1%
Compound X 100 μM
  Fold increase of Compound X combined with bromoform as compared to Compound X alone: 1.16 fold
[2]
  inhibition at 100 µM: 48.3%

## C[C@H]1[C@H](C)CC[C@]2(C(=O)O)CC[C@]3(C)C(=CC[C@@H]4[C@@]5(C)CC[C@H](O)C(C)(C)[C@@H]5CC[C@]43C)[C@H]12 [Ursolic Acid]
[5]
  Methane inhibition in combination with Bromoform (%): 85.2%
Compound X 100 μM
  Fold increase of Compound X combined with bromoform as compared to Compound X alone: 85.2 fold
[2]
  inhibition at 100 µM: 1%

## COc1cc(O)c(CC=C(C)C)c(O)c1C(=O)/C=C/c1ccc(O)cc1 [Xanthohumol]
Compound X 6.25 μM-12.5 μM (range tested) + bromoform 0.12 μM, 24 h
  Methane inhibition in combination with Bromoform (%): 95.1%
Compound X 6.25 μM-12.5 μM (range tested)
  Fold increase of Compound X combined with bromoform as compared to Compound X alone: 1.5 fold
Methanococcus maripaludis, Compound X 6.25 μM-12.5 μM (range tested) alone, 24 h, read-out: Methane inhibition of Compound X as a sole compound (%)
  inhibition: 63.6%

## Bavachinin
Compound X 12.5 μM-100 μM (range tested) + bromoform 0.12 μM, 24 h
  Methane inhibition in combination with Bromoform (%): 97.2%
Compound X 12.5 μM-100 μM (range tested) alone, 24 h
  Methane inhibition of Compound X as a sole compound (%): 43%
Compound X 12.5 μM-100 μM (range tested)
  Fold increase of Compound X combined with bromoform as compared to Compound X alone: 2.26 fold
